Test results from ChEMBL document CHEMBL5614424, “Natural Product-Inspired Discovery of Naphthoquinone-Furo-Piperidine Derivatives as Novel STAT3 Inhibitors for the Treatment of Triple-Negative Breast Cancer” (J Med Chem, 2024).

Key:
[1] = tested on: MDA-MB-231; assay: Antiproliferative activity against human MDA-MB-231 cells assessed as cell viability incubated for 48 hrs measured after additional incubation with MTT; format: functional, cell-based; conditions: MDA-MB-231, 48 h
[2] = tested on: MDA-MB-468; assay: Antiproliferative activity against human MDA-MB-468 cells assessed as cell viability incubated for 48 hrs measured after additional incubation with MTT; format: functional, cell-based; conditions: MDA-MB-468, 48 h
[3] = Antiproliferative activity against human MCF-10A cells assessed as cell viability incubated for 48 hrs measured after additional incubation with MTT; format: toxicity, cell-based
[4] = tested on: L02; assay: Antiproliferative activity against human L02 cells assessed as cell viability incubated for 48 hrs measured after additional incubation with MTT; format: functional, cell-based; conditions: L02, 48 h
[5] = tested on: MDA-MB-231; assay: Induction of apoptosis in human MDA-MB-231 cells assessed as early apoptotic cells at 2.5 uM measured after 24 hrs incubation by the annexin V/propidium iodide (PI) double staining assay (reference value: 2.46%); format: functional
[6] = tested on: MDA-MB-231; assay: Induction of apoptosis in human MDA-MB-231 cells assessed as late apoptotic cells at 2.5 uM measured after 24 hrs incubation by the annexin V/propidium iodide (PI) double staining assay (reference value: 2.69%); format: functional
[7] = tested on: MDA-MB-231; assay: Induction of apoptosis in human MDA-MB-231 cells assessed as early apoptotic cells at 5 uM measured after 24 hrs incubation by the annexin V/propidium iodide (PI) double staining assay (reference value: 2.46%); format: functional
[8] = tested on: MDA-MB-231; assay: Induction of apoptosis in human MDA-MB-231 cells assessed as late apoptotic cells at 5 uM measured after 24 hrs incubation by the annexin V/propidium iodide (PI) double staining assay (reference value: 2.69%); format: functional
[9] = tested on: MDA-MB-468; assay: Induction of apoptosis in human MDA-MB-468 cells assessed as early apoptotic cells at 2.5 uM measured after 24 hrs incubation by the annexin V/propidium iodide (PI) double staining assay (reference value: 3.98%); format: functional
[10] = tested on: MDA-MB-468; assay: Induction of apoptosis in human MDA-MB-468 cells assessed as late apoptotic cells at 2.5 uM measured after 24 hrs incubation by the annexin V/propidium iodide (PI) double staining assay (reference value: 3.64%); format: functional
[11] = tested on: MDA-MB-468; assay: Induction of apoptosis in human MDA-MB-468 cells assessed as early apoptotic cells at 5 uM measured after 24 hrs incubation by the annexin V/propidium iodide (PI) double staining assay (reference value: 3.98%); format: functional
[12] = tested on: MDA-MB-468; assay: Induction of apoptosis in human MDA-MB-468 cells assessed as late apoptotic cells at 5 uM measured after 24 hrs incubation by the annexin V/propidium iodide (PI) double staining assay (reference value: 3.64%); format: functional
[13] = tested on: MDA-MB-231; assay: Induction of apoptosis in human MDA-MB-231 cells assessed as early apoptotic cells at 5 uM measured after 24 hrs incubation by the annexin V/propidium iodide (PI) double staining assay (reference value: 2.37%); format: functional
[14] = tested on: MDA-MB-231; assay: Induction of apoptosis in human MDA-MB-231 cells assessed as late apoptotic cells at 5 uM measured after 24 hrs incubation by the annexin V/propidium iodide (PI) double staining assay (reference value: 3.08%); format: functional
[15] = tested on: MDA-MB-231; assay: Induction of apoptosis in human MDA-MB-231 cells assessed as early apoptotic cells pretreated with Z-VAD-FMK at 5 uM measured after 24 hrs incubation by the annexin V/propidium iodide (PI) double staining assay (reference value: 2.37%); format: functional
[16] = tested on: MDA-MB-231; assay: Induction of apoptosis in human MDA-MB-231 cells assessed as late apoptotic cells pretreated with Z-VAD-FMK at 5 uM measured after 24 hrs incubation by the annexin V/propidium iodide (PI) double staining assay (reference value: 3.08%); format: functional
[17] = tested on: MDA-MB-468; assay: Induction of apoptosis in human MDA-MB-468 cells assessed as early apoptotic cells at 5 uM measured after 24 hrs incubation by the annexin V/propidium iodide (PI) double staining assay (reference value: 2.36%); format: functional
[18] = tested on: MDA-MB-468; assay: Induction of apoptosis in human MDA-MB-468 cells assessed as late apoptotic cells at 5 uM measured after 24 hrs incubation by the annexin V/propidium iodide (PI) double staining assay (reference value: 4.33%); format: functional
[19] = tested on: MDA-MB-468; assay: Induction of apoptosis in human MDA-MB-468 cells assessed as early apoptotic cells pretreated with Z-VAD-FMK at 5 uM measured after 24 hrs incubation by the annexin V/propidium iodide (PI) double staining assay (reference value: 2.36%); format: functional
[20] = tested on: MDA-MB-468; assay: Induction of apoptosis in human MDA-MB-468 cells assessed as late apoptotic cells pretreated with Z-VAD-FMK at 5 uM measured after 24 hrs incubation by the annexin V/propidium iodide (PI) double staining assay (reference value: 4.33%); format: functional
[21] = Half life in male rat at 10 mg/kg, po measured upto 24 hrs by LC/MS/MS analysis; format: ADME, organism-based; conditions: in vivo
[22] = Half life in male rat at 10 mg/kg, ip measured upto 24 hrs by LC/MS/MS analysis; format: ADME, organism-based; conditions: in vivo
[23] = Half life in male rat at 5 mg/kg, iv measured upto 24 hrs by LC/MS/MS analysis; format: ADME, organism-based; conditions: in vivo
[24] = AUC(0 to t) in male rat at 10 mg/kg, po measured upto 24 hrs by LC/MS/MS analysis; format: ADME, organism-based; conditions: in vivo
[25] = AUC(0 to t) in male rat at 10 mg/kg, ip measured upto 24 hrs by LC/MS/MS analysis; format: ADME, organism-based; conditions: in vivo
[26] = AUC(0 to t) in male rat at 5 mg/kg, iv measured upto 24 hrs by LC/MS/MS analysis; format: ADME, organism-based; conditions: in vivo
[27] = AUC(0 to infinity) in male rat at 10 mg/kg, po measured upto 24 hrs by LC/MS/MS analysis; format: ADME, organism-based; conditions: in vivo
[28] = AUC(0 to infinity) in male rat at 10 mg/kg, ip measured upto 24 hrs by LC/MS/MS analysis; format: ADME, organism-based; conditions: in vivo
[29] = AUC(0 to infinity) in male rat at 5 mg/kg, iv measured upto 24 hrs by LC/MS/MS analysis; format: ADME, organism-based; conditions: in vivo
[30] = Cmax in male rat at 10 mg/kg, po measured upto 24 hrs by LC/MS/MS analysis; format: ADME, organism-based; conditions: in vivo
[31] = Cmax in male rat at 10 mg/kg, ip measured upto 24 hrs by LC/MS/MS analysis; format: ADME, organism-based; conditions: in vivo
[32] = Cmax in male rat at 5 mg/kg, iv measured upto 24 hrs by LC/MS/MS analysis; format: ADME, organism-based; conditions: in vivo
[33] = Tmax in male rat at 10 mg/kg, po measured upto 24 hrs by LC/MS/MS analysis; format: ADME, organism-based; conditions: in vivo
[34] = Tmax in male rat at 10 mg/kg, ip measured upto 24 hrs by LC/MS/MS analysis; format: ADME, organism-based; conditions: in vivo
[35] = Tmax in male rat at 5 mg/kg, iv measured upto 24 hrs by LC/MS/MS analysis; format: ADME, organism-based; conditions: in vivo
[36] = Oral bioavailability in male rat at 10 mg/kg measured upto 24 hrs by LC/MS/MS analysis; format: ADME, organism-based; conditions: in vivo
[37] = tested on: MDA-MB-231; assay: In vivo antitumor activity against human MDA-MB-231 cells assessed as tumor growth inhibition at 15 mg/kg, ip once daily for 21 consecutive days relative to control; format: functional; conditions: MDA-MB-231, 504 h, time 21 day, read-out: TGI
[38] = tested on: MDA-MB-231; assay: In vivo antitumor activity against human MDA-MB-231 cells assessed as tumor growth inhibition at 30 mg/kg, ip once daily for 21 consecutive days relative to control; format: functional; conditions: MDA-MB-231, 504 h, time 21 day, read-out: TGI
[39] = Toxicity in female BALB/c-nude mouse assessed as histological change in heart at 15 to 30 mg/kg, ip once daily for 21 consecutive days by H and E staining based IHC analysis; format: organism-based; conditions: in vivo, 504 h, dose 15-30 mg/kg, time 21 day
[40] = Toxicity in female BALB/c-nude mouse assessed as histological change in liver at 15 to 30 mg/kg, ip once daily for 21 consecutive days by H and E staining based IHC analysis; format: organism-based; conditions: in vivo, 504 h, dose 15-30 mg/kg, time 21 day
[41] = Toxicity in female BALB/c-nude mouse assessed as histological change in spleen at 15 to 30 mg/kg, ip once daily for 21 consecutive days by H and E staining based IHC analysis; format: organism-based; conditions: in vivo, 504 h, dose 15-30 mg/kg, time 21 day
[42] = Toxicity in female BALB/c-nude mouse assessed as histological change in lung at 15 to 30 mg/kg, ip once daily for 21 consecutive days by H and E staining based IHC analysis; format: organism-based; conditions: in vivo, 504 h, dose 15-30 mg/kg, time 21 day
[43] = Toxicity in female BALB/c-nude mouse assessed as histological change in kidney at 15 to 30 mg/kg, ip once daily for 21 consecutive days by H and E staining based IHC analysis; format: organism-based; conditions: in vivo, 504 h, dose 15-30 mg/kg, time 21 day

With CC(C)C[C@@H](CO)N1CCc2c(oc3c2C(=O)C(=O)c2ccccc2-3)C1 the IC50 [1] was 2.05 µM, the IC50 [2] was 7.54 µM and the IC50 at 48 h [3] was > 20 µM. The IC50 [4] was > 20 µM, the Activity [5] was 3.35% and the Activity [6] was 3.48%. The Activity [7] was 5.86%, the Activity [8] was 29.24% and the Activity [9] was 3.86%. For the same compound, the Activity [10] was 4.6%, the Activity [11] was 16.47% and the Activity [12] was 19.37%. The Activity [13] was 3.97%, the Activity [14] was 25.51% and the Activity [15] was 4.68%. For the same compound, the Activity [16] was 13.57%, the Activity [17] was 22.31% and the Activity [18] was 17.13%. It also gave an Activity [19] of 11.06%, an Activity [20] of 15.38% and a half-life [21] of 7.1 h. It also gave a half-life [22] of 7.9 h, a half-life [23] of 7.9 h and an AUC(0-t) at 24 h [24] of 55.1 ng·h/mL. The AUC(0-t) at 24 h [25] was 436 ng·h/mL, the AUC(0-t) at 24 h [26] was 536 ng·h/mL and the AUC(0-inf) [27] was 56.7 ng·h/mL. It also gave an AUC(0-inf) [28] of 490 ng·h/mL, an AUC(0-inf) [29] of 618 ng·h/mL and a Cmax [30] of 67.8 ng/mL. It also gave a Cmax [31] of 232 ng/mL, a Cmax [32] of 348 ng/mL and a Tmax [33] of 0.2 h. For the same compound, the Tmax [34] was 6 min, the Tmax [35] was 4.2 min and the bioavailability [36] was 5.1%. The inhibition in vivo at 15 mg/kg [37] was 42.2%, the inhibition in vivo at 30 mg/kg [38] was 60.4% and the Activity [39] was “Non-Toxic”. For the same compound, the Activity [40] was “Non-Toxic”, the Activity [41] was “Non-Toxic” and the Activity [42] was “Non-Toxic”. The Activity [43] was “Non-Toxic”.
